According to paper PMC8365602 (Journal of Medicinal Chemistry, 2021):
Like-named read-outs stand apart in the source and are kept apart here.

Columns and labels:
[1] = system: PMNL; experiment: Intracellular uptake by PMNL; format: cell-based, human; settings: 150 nM for 20 min
Experimental: Cells were centrifuged (1200g, 5 min, 4 °C) and washed thrice with PBS pH 7.4 with 0.1% fatty-acid-free BSA (Sigma-Aldrich). Compounds were extracted and analyzed by UPLC-MS/MS as described below for LCMs and derivatives. The intracellular concentrations of 27a and 12a were calculated assuming a spherical cell shape with a diameter of 13 μm (as measured using a Vi-CELL Series Cell Counter, Beckman Coulter, Krefeld, Germany) and an equal intracellular distribution. 13d (9 pmol) was used as the internal standard.

[2] = system: PMNL; experiment: fMLP-induced Ca2+ influx in PMNL; format: cell-based, human
Experimental: PMNL (1 × 10^6) were loaded with Fura-2/AM (2 nmol, Thermo Fisher Scientific) for 45 min at 37 °C. […] Intracellular Ca^2+ concentrations were measured using a NOVOstar fluorescence microplate reader (BMG Labtech, Ortenberg, Germany) at 37 °C. The emission wavelength was set to 510 nm and the excitation wavelengths to 340 nm (Ca^2+-bound Fura-2) and 380 nm (free Fura-2).[23] To define 100% Ca^2+ influx, the difference between the maximal influx (cell lysis by Triton X-100) and minimal influx (subsequent chelation of Ca^2+ by EDTA) was measured for each experiment.

[3] = target: T1, 5-LOX (Homo sapiens, UniProt P09917); experiment: 5-LOX product formation in activated PMNL;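 also: freshly isolated human PMNL in PBS pH 7.4 plus glucose, preincubated 10 min at 37 °C with compound, 5-LOX products (all-trans LTB4 isomers, 5-HETE) quantified by RP-HPLC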
T1 sequence (P09917 1-674): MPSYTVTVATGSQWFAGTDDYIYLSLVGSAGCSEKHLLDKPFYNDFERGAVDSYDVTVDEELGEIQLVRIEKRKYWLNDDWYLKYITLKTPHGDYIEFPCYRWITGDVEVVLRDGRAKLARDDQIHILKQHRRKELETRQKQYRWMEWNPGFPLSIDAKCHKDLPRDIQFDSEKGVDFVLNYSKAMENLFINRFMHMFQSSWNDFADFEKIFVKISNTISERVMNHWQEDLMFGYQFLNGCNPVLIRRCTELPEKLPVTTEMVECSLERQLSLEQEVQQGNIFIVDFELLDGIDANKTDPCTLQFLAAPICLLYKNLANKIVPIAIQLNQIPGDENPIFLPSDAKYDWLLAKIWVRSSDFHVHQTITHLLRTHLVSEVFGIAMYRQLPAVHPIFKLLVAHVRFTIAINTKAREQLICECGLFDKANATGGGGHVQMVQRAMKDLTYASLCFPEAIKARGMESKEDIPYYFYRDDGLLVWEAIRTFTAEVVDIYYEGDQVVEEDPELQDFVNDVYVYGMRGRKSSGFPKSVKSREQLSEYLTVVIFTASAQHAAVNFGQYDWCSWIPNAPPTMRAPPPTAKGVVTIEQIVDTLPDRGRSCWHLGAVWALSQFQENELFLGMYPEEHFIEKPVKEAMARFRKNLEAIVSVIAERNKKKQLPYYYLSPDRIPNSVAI

[4] = system: human macrophages (M1 subtype); experiment: Lipid mediator profile of M1 macrophages stimulated with pathogenic E. coli; format: cell-based; settings: 1 μM
Experimental: Macrophages were polarized to the M1 phenotype by stimulation with LPS (100 ng/mL, Sigma-Aldrich) and interferon (IFN)-γ (20 ng/mL, Peprotech, Hamburg, Germany) for 48 h.[23]
Monocytes (1 × 10^6/mL), which were prestimulated with LPS (1 μg/mL) for 24 h to induce COX-2 expression, or M1 macrophages (2 × 10^6 cells/mL) were preincubated with the vehicle (0.1% DMSO), 27a, or 12a for 15 min. Arachidonic acid (20 μM) and A23187 (2.5 μM) were added to monocytes suspended in a monocyte medium (lacking FCS if indicated) to induce lipid mediator formation.[81]
Fatty acids and lipid mediators were extracted from macrophage supernatants or murine peritoneal exudates (1 mL) after addition of two aliquots of ice-cold methanol.[23]d8-5S-HETE, d4-LTB4, d5-lipoxin A4, d5-resolvin D2, d4-PGE2 (200 nM, each, Cayman Chemicals), and d8-arachidonic acid (10 μM, Cayman Chemicals) were added as internal standards. […] The columns were extensively washed with H2O and hexane before lipid mediators were eluted with methyl formate, evaporated to dryness, dissolved in methanol/H2O (50:50), and analyzed by UPLC-MS/MS.[23]
To quantify lipid mediators and fatty acids in macrophages, murine plasma, and murine peritoneal exudates, the mobile phase methanol/H2O (acidified with 0.01% acetic acid) was ramped from 42:58 to 86:14 over 12.5 min, followed by isocratic elution with methanol/H2O (98:2) for 3 min. […]

[5] = system: mice sensitized to ovalbumin; experiment: Experimental model of murine asthma (ovalbumin sensitization); format: in vivo; settings: 10 mg/kg p.o.
Experimental: Male CD-1 mice (33–39 g, 6–8 weeks, Charles River Laboratories; Calco, Italy) and female BALB/c mice (20 g, 8 weeks, Charles River Laboratories) were fed with standard rodent chow and water and acclimated for 4 days at a 12 h light and 12 h dark schedule in a constant air-conditioned environment (21 ± 2 °C). Mice were randomly assigned to groups, and experiments were carried out during the light phase.
BALB/c mice received 27a (p.o.) or vehicle (0.5% carboxymethylcellulose in 10% Tween 20; 0.5 mL) on days 0 and 7, 1 h (p.o) before being sensitized to ovalbumin (100 μg adsorbed to 3.3 mg of aluminum hydroxide gel, s.c., Sigma-Aldrich). Mice were sacrificed on days 1, 3, 8, 10, or 21 to collect lung and plasma. Bronchi were cut in rings of 1 to 2 mm length, placed in organ baths, and fixed to an isometric force transducer 7006 connected to a Powerlab 800 (AD Instruments, Ugo Basile, Comerio, Italy). After stretching the rings to a resting tension of 0.5g and equilibration for at least 30 min, the rings were challenged with carbachol (1 μM) until a reproducible response was observed. To assess bronchial reactivity, the cumulative response to carbachol (0.001 to 3.16 μM) was measured. Bronchial relaxation was determined from the cumulative response of precontracted bronchial tissues to salbutamol. Compound 27a, LTB4, and LTB4 isomers were analyzed in plasma and lung homogenates by UPLC-MS/MS. Lung tissue (100 mg/mL) was homogenized in PBS pH 7.4 at 4 °C for 1–2 min using an Omni tissue homogenizer (Omni, Kennesaw, GA).

C/C(=C\CC/C(C)=C/CC[C@]1(C)CCc2c(C)c(O)c(C)c(C)c2O1)CCC=C(CO)CO [Compound 27a, α-amplexichromanol]
Intracellular accumulation in PMNL [1]: strongly accumulates in PMNL
Ca2+ influx ([2]; 10 μM): substantially reduced
Intracellular levels of Ca2+ ([2]; submicromolar concentrations (≤1 μM)): nor influenced intracellular levels of Ca^2+
remaining activity at 3 µM ([3]; PMNL, read-out: 5-LOX PMNL residual activity at 3 μM): 0.5 ± 0.1%
IC50 ([3]; read-out: 5-LOX PMNL IC50, 5-LOX product formation in activated PMNL, mean ± SEM): 40 ± 10 nM
IC50 ([3]; read-out: IC50, 5-LOX product formation in PMNL, A23187): 50 nM
Biosynthesis of 5-LOX-derived products in M1 macrophages [4]: preferentially suppressed the biosynthesis of 5-LOX-derived products
PGE2 levels in M1 macrophages [4]: slightly increased
Lung levels of LTB4 and its isomers ([5]; day 3): lowered lung levels of LTB4 and its isomers
Adrenergic bronchial relaxation induced by salbutamol ([5]; day 21): fully restored the adrenergic bronchial relaxation induced by salbutamol
Ovalbumin-induced bronchial hyperreactivity to carbachol ([5]; day 21): blocked ovalbumin-induced bronchial hyperreactivity to carbachol
